# Measurements: patent US10098895B2, “Treatment of symptoms related to neurodegenerative disorders through pharmacological dermal activation of cranial nerves” (GLIA, LLC, priority 2016, dated 2018)
# Assays:
# [1] = system: Parkinson's disease symptoms; assay: Example 1: Parkinson's disease patient, dermal application to forehead and ear conchae
# Protocol: A person was diagnosed with the early stages of Parkinson's disease in December of 2014. Their symptoms included tremors in the hands, impaired short term memory, slow and uncontrolled rigid movements while walking and eating, and declining ocular blink function. The patient also had dry eyes with hyper-tearing, burning, and itching.
# The patient was also treated with progesterone 1% on the forehead initially once daily beginning in March 2015. […] The progesterone was applied as needed for about a year.
# Instead of the prescribed regimen, the patient began dermal application of dronabinol 1.25 mg 2 times daily to three sites: (i) the forehead, (ii) the concha of the left ear, and (iii) the concha of the right ear. Each dose of 1.25 mg was divided equally between the three application sites. This treatment regimen began Friday Jun. 10, 2016 concurrent with the discontinuation of rasagiline.
# In February 2017, the patient, who suffers from debilitating moderate spinal stenosis, started taking Azilect (rasagiline) and carbidopa-levodopa to improve their walking and flexibility. […] The patient decided that, together with the prescribed medications, they would switch from dronabinol to topical testosterone gel applied to the forehead and ear conchae to see if this would impact their longstanding low testosterone levels.
# In March 2017, topical testosterone gel application was instituted as an adjunct to is the prescribed Azilect and carbidopa-levodopa.
# The patient voluntarily stopped topical testosterone for 3 weeks in June 2017. […] At the end of 3 weeks, topical testosterone was re-instituted as an adjunct to the prescribed medications.
# essential tremor = assay: Example 7: essential tremor subject with contact lens discomfort; type: in vivo, human
# Protocol: A person developed persistent right hand tremors of a kinetic (non-resting) type that has been continuous over the past 6 years. […] This condition had not worsened over time. […] Initially, their doctor thought that these symptoms were stress related and they have been taking 2.5 mg of escitalopram for over 6 years. […] The subject was not on hormone replacement therapy or any other medication.
# Concomitantly, the subject suffered from uncomfortable eyes, with a sticky burning sensation and development of blurred vision after about 5-6 hours of contact lens wear. For the past 3 years, the subject was administered 1% progesterone gel (1 mg per day) by dermal application to the forehead once per night. The progesterone gel prolonged comfortable contact lens wear time with sustained visual acuity from 5-6 hours to greater than 15 hours. […] After 2 years of treatment, the benefits of progesterone dermal application persisted for at least 3 days without treatment. There was no effect of the progesterone on their tremor symptoms.
# After allowing for washout of progesterone for 3 days, they began forehead application of 0.5-0.75 mg dronabinol once daily at night.
# The dronabinol administration regimen was altered by dividing equally the once daily dose of 0.5-0.75 mg dronabinol between the conchae of the left ear, the conchae of the right ear, and the forehead. […] Comfortable contact lens wear, with ease of insertion and removal, and visual acuity extends for 15 hours or more after dronabinol application.
# Contact lens comfort wear duration was greater than 15 hours.
# In April 2017, the subject, while still being treated with 1% progesterone applied to the forehead, instituted a once-daily low dose topical testosterone applied to the forehead and ear conchae to determine if doing so would produce a beneficial impact on further tremor reduction and in particular essential tremor triggered by caffeine consumption. […] They stopped the treatment to assess whether the tremor would return to pre-testosterone treatment levels. As of August 2017, the subject is without noticeable tremor. The caffeine trigger for tremor onset, which had been recognized throughout all treatments, has not re-appeared since the completion of the 4-week testosterone treatment. The subject continues on low-dose progesterone 1% applied daily to the forehead as the only treatment.
# [2] = system: Parkinson's disease symptoms; assay: Example 2: Parkinson's disease subject, topical progesterone and testosterone; type: in vivo, human
# Source text: A person was diagnosed with Parkinson's disease in August of 2015. Notable symptoms include both resting and action tremor of the left hand and fingers, forearm, and, to a lesser extent, the right hand and the left leg. Handwriting and computer keyboard work were difficult. They had ocular symptoms associated with the disease, including dry eye disease with moderate to severe burning and grittiness, rapid blink rate, and partial blinking. They used artificial tears constantly in an attempt to alleviate the ocular symptoms. They had not been on any Parkinson's medications. Their Parkinson's tremor followed an “on-off” cycle that correlated with their stress levels, the “on” cycle being times with low stress and few symptoms, and the “off” cycle induced by stress showing an increase in symptoms.
# In late February 2017, the subject started applying single daily doses of 0.125% testosterone to the forehead and ear conchae. By the third day of treatment, the subject was tremor-free for periods of 4-6 hours, and the “on” part of the cycle was more frequent. […] The dose of testosterone was increased to 0.2% once daily in early April.
# In July 2017, testosterone application was stopped after a taper to evaluate its effects. […] On Aug. 17, 2017, they reported extreme anxiety.
# That same afternoon, the subject applied 0.2% testosterone to their forehead and ear conchae, and the next day reported less anxiety and more “on” cycles. By Aug. 20, 2017, they reported having stabilized on the once daily applications with a 60% or greater increase in “on” periods. On August 28, they reported going 9 hours without tremors and leg spasms. On Aug. 30, 2017, the subject was able to walk 8 miles and exercised in between. They described themself as feeling 100%.
# [3] = prescribed Azilect (rasagiline) together with carbidopa-levodopa
# [4] = once-daily low dose topical testosterone to forehead and ear conchae, 4 weeks, with 1% progesterone to forehead
smiles,measurement,setting,value
"C#CCN[C@@H]1CCc2ccccc21 [Azilect, rasagiline]",motor function,[1]; [3],some motor function improvement
same,tremor,[1]; [3],no more improved than when they were applying dronabinol alone
CN(C)CCC[C@@]1(c2ccc(F)cc2)OCc2cc(C#N)ccc21 [escitalopram],tremor,essential tremor; 2.5 mg of escitalopram for over 6 years,no resolution of the tremor
C[C@]12CC[C@H]3[C@@H](CCC4=CC(=O)CC[C@@]43C)[C@@H]1CC[C@@H]2O [testosterone],tremor-free days,"[2]; 0.125% testosterone once daily, mid-March",two full days tremor-free
same,tremor amplitude and resolution,[2]; 0.125% testosterone single daily doses to forehead and ear conchae,"the amplitude was less, and the tremors resolved sooner"
same,tremor-free periods,"[2]; 0.125% testosterone single daily doses to forehead and ear conchae, by the third day",4 to 6 h
same,time without tremors and leg spasms,"[2]; 0.2% testosterone once daily, August 28",9 h
same,increase in 'on' periods,"[2]; 0.2% testosterone once daily, by Aug. 20, 2017",≥ 60%
same,anxiety,"[2]; 0.2% testosterone re-applied to forehead and ear conchae, next day",less anxiety
same,symptom trend after stopping treatment,[2]; 6 weeks of testosterone abstinence,downward trend in symptoms to pre-treatment levels
same,blood total and free testosterone,"[2]; July 2017, after topical testosterone 0.125-0.2% once daily",mildly elevated total and free testosterone
same,tremors after stopping treatment,[2]; day 3 of testosterone abstinence,tremors were more frequent
same,"stress management, mood, libido","[2]; testosterone 0.2% once daily, through April 2017","improved stress management, elevated mood with increase in libido and vaginal lubrication"
same,"disease progression, assessed by neurologists","[2]; testosterone administration, no prescribed Parkinson's medications",no disease progression
same,negative side effects,"[2]; topical testosterone, February to July 2017",No negative side effects
same,overall functioning after resumption,[1]; testosterone resumed after a three week hiatus,returned immediately to the improved levels
same,"mental stability, reported by wife","[1]; testosterone to forehead and ears, one-year period up to August 2017",very positive impact on their mental stability
same,adverse events,[1]; throughout low dose neural cranial treatment,no adverse events were noted
same,cognitive and non-motor symptoms,"[1]; topical testosterone gel to forehead and ear conchae, adjunct to Azilect and carbidopa-levodopa, by the third day",improvement in cognitive and non-motor symptoms
same,cognitive and emotional function after stopping treatment,"[1]; topical testosterone stopped for 3 weeks, within 3 days",significant decline in cognitive and emotional function
same,caffeine trigger of essential tremor,essential tremor; [4],near complete resolution of the caffeine trigger
same,reduction in tremor amplitude and frequency over the original baseline,essential tremor; [4],≤ 90%
